Reference: ChEMBL document CHEMBL1154505, “Nakijiquinones E and F, new dimeric sesquiterpenoid quinones from marine sponge” (Bioorg Med Chem, 2009)

Experiments:
Format in all cases: functional, cell-based
P388 = test: Cytotoxicity against mouse P388 cells
L1210 = test: Cytotoxicity against mouse L1210 cells
KB = test: Cytotoxicity against human KB cells

Measured: IC50

C=C1CCC[C@H]2[C@](C)(Cc3cc(C(=O)OC)c(O)c(NC4=CC(=O)C(O)=C(C[C@]5(C)[C@@H](C)CC[C@]6(C)C(C)=CCC[C@@H]56)C4=O)c3O)[C@@H](C)CC[C@]12C [NAKIJIQUINONE E]
> 10 µg/mL: all assays above

COC(=O)c1cc(C[C@]2(C)[C@@H](C)CC[C@]3(C)C(C)=CCC[C@@H]23)c(O)c(NC2=CC(=O)C(O)=C(C[C@]3(C)[C@@H](C)CC[C@]4(C)C(C)=CCC[C@@H]34)C2=O)c1O [NAKIJIQUINONE F]
> 10 µg/mL: all assays above
